Among the data in PubChem BioAssay (NCI) are TGI values, retold here.

Test systems include A549 NSCLC; CAKI-1 renal; CCRF-CEM leukemia; COLO 205 colon; HCC-2998 colon; HT29 colon; IGROV1 ovarian; KM12 colon; NCI-H226 lung; OVCAR-3 ovarian; OVCAR-4 ovarian; PC-3 prostate; RXF 393 renal; SK-MEL-2 melanoma; SK-OV-3 ovarian; SN12C renal; SNB-19 CNS; SR leukemia; T-47D breast.
Common to all, as to experiment: inhibition of tumour cell growth, NCI panel, 48 h

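Each compound was tested at five concentrations against cells in 96-well plates for 48 hours. TGI: total growth inhibition.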

As to `O=CC(=C(I)I)c1ccccc1`, the TGI was 41.8 µM in the assay on A549 NSCLC; 7.83 µM with CAKI-1 renal; 0.65 µM with CCRF-CEM leukemia; 6.79 µM with COLO 205 colon; 26.4 µM with HCC-2998 colon; greater than 32.5 µM in the assay with HT29 colon. Besides, the TGI amounted to 11.2 µM in the assay with IGROV1 ovarian; 12.7 µM in the assay with KM12 colon; 32 µM with NCI-H226 lung; 3.69 µM with OVCAR-3 ovarian; 4.37 µM with OVCAR-4 ovarian; 13.7 µM in the assay on PC-3 prostate. For the same molecule, the TGI in the assay with RXF 393 renal turned out to be 3.58 µM; in the assay on SK-MEL-2 melanoma, 23.2 µM; in the assay with SK-OV-3 ovarian it was 29.9 µM; in the assay on SN12C renal it was 6.39 µM; in the assay with SNB-19 CNS, 21.1 µM; in the assay on SR leukemia, 1.25 µM. The molecule also gave a TGI in the assay with T-47D breast of 9.18 µM.
For the molecule `CCOC(=O)c1c(N2CCCC2)nsc1Nc1ccc(F)cc1`, the TGI was greater than 100 µM with A549 NSCLC; greater than 100 µM with CAKI-1 renal; 73.7 µM in the assay with CCRF-CEM leukemia; greater than 100 µM with COLO 205 colon; greater than 100 µM with HCC-2998 colon; 68 µM in the assay on HT29 colon. The TGI with IGROV1 ovarian, with KM12 colon, in the assay with NCI-H226 lung, in the assay with OVCAR-3 ovarian, in the assay with OVCAR-4 ovarian and in the assay with PC-3 prostate was greater than 100 µM in each case. The TGI with RXF 393 renal is 31.9 µM; in the assay with SK-MEL-2 melanoma, 46.4 µM; with SK-OV-3 ovarian, greater than 100 µM; in the assay with SN12C renal, greater than 100 µM; in the assay on SNB-19 CNS, greater than 100 µM; in the assay on SR leukemia, greater than 100 µM. Also, the TGI with T-47D breast was 46 µM.
Consider `O=C1C=C2C(=NC34CCCCC3C(c3ccccc3)C3=C(c5ccccc5CC3)N24)c2ccccc21` (centres undefined), for which the TGI in the assay with A549 NSCLC, with CAKI-1 renal, in the assay with CCRF-CEM leukemia, with COLO 205 colon, with HCC-2998 colon and with HT29 colon was greater than 10 µM throughout. Moreover, the TGI in the assay on IGROV1 ovarian, in the assay on KM12 colon, in the assay on NCI-H226 lung, in the assay on OVCAR-3 ovarian, with OVCAR-4 ovarian and in the assay on PC-3 prostate was greater than 10 µM each time. Moreover, the TGI with RXF 393 renal, in the assay on SK-MEL-2 melanoma, in the assay with SK-OV-3 ovarian, with SN12C renal, in the assay on SNB-19 CNS and in the assay on SR leukemia was greater than 10 µM throughout. In addition, the TGI in the assay on T-47D breast was greater than 10 µM.
Regarding `CC#CC#C/C=C1/O[C@]2(CCC(OC(C)=O)CO2)[C@@H]2O[C@H]12` (some centres undefined), the TGI in the assay on A549 NSCLC was greater than 100 µM; in the assay on CAKI-1 renal, 63.6 µM; in the assay on CCRF-CEM leukemia it was 55.3 µM; with COLO 205 colon it was 32.4 µM; in the assay on HCC-2998 colon, 33 µM; with HT29 colon, 96.1 µM. Further, the TGI in the assay on IGROV1 ovarian is greater than 100 µM; in the assay with KM12 colon, 47.1 µM; with NCI-H226 lung, 47.4 µM; in the assay on OVCAR-3 ovarian, greater than 100 µM; in the assay on OVCAR-4 ovarian, greater than 100 µM; in the assay with PC-3 prostate, 80.9 µM. Also, the TGI with RXF 393 renal is 47.5 µM; with SK-MEL-2 melanoma, 40.5 µM; in the assay on SK-OV-3 ovarian, greater than 100 µM; with SN12C renal, 51.9 µM; with SNB-19 CNS, greater than 100 µM; with SR leukemia it was greater than 100 µM. Moreover, in the assay on T-47D breast, the TGI turned out to be 52.1 µM.
As to `NC(=O)NNc1nc2ccccc2c(=O)n1NC(=O)C(=O)Nc1ccc(Cl)cc1Cl`, the TGI in the assay on A549 NSCLC, in the assay with CAKI-1 renal, with CCRF-CEM leukemia, in the assay on HCC-2998 colon, in the assay with HT29 colon and in the assay with IGROV1 ovarian was greater than 100 µM throughout. For the same molecule, the TGI in the assay on KM12 colon, in the assay on NCI-H226 lung, in the assay with OVCAR-3 ovarian, in the assay on OVCAR-4 ovarian, in the assay with PC-3 prostate and with RXF 393 renal was greater than 100 µM throughout. For the same molecule, the TGI in the assay with SK-MEL-2 melanoma, with SK-OV-3 ovarian, in the assay on SN12C renal, with SNB-19 CNS, with SR leukemia and in the assay on T-47D breast was greater than 100 µM in each case.
For `Cc1nc2cccc(F)c2c(=O)n1C1CCCCNC1=O` (centres undefined), the TGI in the assay on A549 NSCLC, in the assay on CAKI-1 renal, in the assay with CCRF-CEM leukemia, with COLO 205 colon, in the assay on HCC-2998 colon and in the assay on HT29 colon was greater than 10 µM throughout. Further, the TGI in the assay on IGROV1 ovarian, with KM12 colon, in the assay on NCI-H226 lung, in the assay on OVCAR-3 ovarian, with OVCAR-4 ovarian and in the assay with PC-3 prostate was greater than 10 µM each time. Also, the TGI with RXF 393 renal, with SK-MEL-2 melanoma, in the assay with SK-OV-3 ovarian, in the assay with SN12C renal, with SNB-19 CNS and with SR leukemia was greater than 10 µM throughout. In the assay on T-47D breast, this molecule registered a TGI greater than 10 µM.
With `CCC1NC(=O)C1NC(=O)OC` (centres undefined), the TGI in the assay with CAKI-1 renal, with CCRF-CEM leukemia, in the assay with COLO 205 colon, in the assay with HCC-2998 colon, in the assay with HT29 colon and in the assay on IGROV1 ovarian was greater than 100 µM each time. Also, the TGI with KM12 colon, in the assay with NCI-H226 lung, with OVCAR-3 ovarian, in the assay with OVCAR-4 ovarian, in the assay on PC-3 prostate and in the assay with RXF 393 renal was greater than 100 µM each time. Moreover, the TGI in the assay on SK-MEL-2 melanoma, with SK-OV-3 ovarian, with SN12C renal, in the assay on SNB-19 CNS, in the assay with SR leukemia and in the assay on T-47D breast was greater than 100 µM throughout.
For the molecule `NC(=O)N=C(N(Cc1ccccc1)Cc1ccccc1)N(Cc1ccccc1)Cc1ccccc1`, the TGI with A549 NSCLC, with CAKI-1 renal, with CCRF-CEM leukemia, with HCC-2998 colon, with HT29 colon and with IGROV1 ovarian was greater than 100 µM each time. Also, the TGI was greater than 100 µM in the assay on KM12 colon; greater than 100 µM in the assay on NCI-H226 lung; greater than 100 µM with OVCAR-3 ovarian; greater than 75.6 µM with OVCAR-4 ovarian; greater than 100 µM in the assay on PC-3 prostate; greater than 100 µM in the assay on RXF 393 renal. Also, the TGI in the assay with SK-MEL-2 melanoma, in the assay on SK-OV-3 ovarian, in the assay with SN12C renal, with SNB-19 CNS, with SR leukemia and with T-47D breast was greater than 100 µM each time.
